Several values for one entry are separate records, joined by “and”; a condition that tells them apart may be missing. Equal values may be shown once. Entries after “also recorded” stand apart in the source; their conditions may differ. Marks after values point to notes of the source that are not given here.
Columns and labels:
Gsα [1] = assay: Detergent extraction of Gsα from rat synaptic membrane after chronic antidepressant treatment; format: in vivo; settings: for GsαL in the Triton X-100 extract versus control / GsαL in the Triton X-114 extract versus control: rat synaptic membrane, 21 days treatment
Description: C6-2B cells (between passages 20 and 40) were grown in 175-cm^2 flasks in Dulbecco's modified Eagle medium, 4.5 g of glucose/L, 10% bovine serum, in a 10% CO2 atmosphere, at 37° C. for 3 days after splitting. […] Male Sprague-Dawley rats weighing 150-200 g were fed ad libitum and maintained in a 12-h light/dark cycle. […] 36:803-838, 1989]. […] Rat cerebral cortex membranes were prepared according to the method of Rasenick et al. [Nature, 294:560-562; 1981].
Membrane proteins were extracted sequentially from C6-2B or rat synaptic membranes as described [Yan et al., J. Neurochem., 66:1489-1495; 1996]. These membranes were stirred on ice in HEPES (15 mM, pH 7.4) containing 1% Triton X-100 for 60 min followed by centrifugation at 100,000 g for 60 min at 4° C. The supernatant was reserved (Triton X-100 extract), and the resulting pellet was resuspended in Tris (15 mM, pH 7.4) containing 1.4% Triton X-114 and 150 mM NaCl. The solution was stirred for 60 min at 4° C. and centrifuged for 30 min at 100,000 g in the cold. The supernatant was saved (Triton X-114 extract). These supernatants and remaining pellet (remainder) were subjected to sodium dodecyl sulfate (SDS)-polyacrylamide gel electophoresis (PAGE) using 10% gels. All of the extraction buffers contained 1 mM PMSF and 1 mM EGTA.
Rat cortex membrane, C6-2B cell membranes, or Triton extracts of each membrane preparation were subjected to SDS-PAGE followed by electrotransfer to polyvinylidene difluoride (PVDF) membrane. The PVDF membrane was incubated with a phosphate-buffered saline/Tween 20 Buffer (140 mM NaCl, […]. 0.1% Tween 20, pH 7.4) and 3% bovine serum albumin. The membrane was then incubated with polyclonal rabbit antisera against the various G protein subunits [RM (Gsα) or 116 (Gi1, Gi2, Gi3α)] at a 1:25,000 (RM) or 1:5,000 (116) dilution (see below for source of antibodies). […] Immunoreactivity was detected with an enhanced chemiluminescence (ECL) western blot detection system (Amersham) in accord with the manufacturer's instructions. The developed autoradiographs were analyzed by densitometry.
Rats were treated with antidepressant via intraperitoneal injection once daily for 21 days, control animals received an equal number and volume of injection of saline. Cerebral cortices from each group were removed. Rat synaptic membrane-enriched fractions were prepared (see Example 1). The ratios of the percentage of Gsα extracted by the two detergents in the treatment versus control groups were compared and are set forth in Table 3 as percentage of control (i.e., each Triton X-100 extract was compared with the untreated Triton X-100 extract, the same was comparison was undertaken for Triton X-114 extracts as well as the remainder). The values shown are means±standard error of the mean of 4-6 experiments.

Gsα [2] = assay: Cellular localization of Gsα in C6-2B cells, immunofluorescence laser scanning confocal microscopy; format: cell-based; settings: for Cells displaying intense Gsα staining at the process tips (and processes): control 64%
Description: C6-2B cells (between passages 30 and 50) were plated onto coverslips and allowed to attach overnight in Dulbecco's modified Eagle's medium. 4.5 g/l glucose, 10% bovine serum, and 100 μg/ml penicillin and streptomycin at 37° C. in a humidified 10% CO2 atmosphere. […] Therefore, the latter treatment paradigm was used in these experiments because it was easier to maintain the cell cultures for 3 days. […] The culture media and drug were changed daily. […] After the treatment duration, the cells were incubated in drug-free media for 45 to 60 minutes before fixation.
After treatment, cells were washed once with phosphate-buffered saline (PBS, […] NaCl, 2.6 mM KCl, 5.4 mM NaαPO4 7H2O, pH 7.4) and fixed with ice-cold methanol for 10 minutes. Cells were then washed three times with PBS followed by 2 h of blocking in 5% normal goat serum/0.2% fish skin gelatin in PBS. Primary antibody was added for 1.5 h, Gsα/RM1 (PerkinElmer Life Sciences, Boston, Mass.) 1:50 and Goα (Santa Cruz Biotechnology, Santa Cruz, Calif.) 2 μg/ml, followed by three washes with PBS. Oregon Green-labeled secondary antibody (Molecular Probes, Eugene, Oreg.) was added at a concentration of 8 μg/ml for 1 h followed by three PBS washes. The coverslips were mounted onto slides with Vectashield (Vector Laboratories. Burlingame, Calif.) containing diamidino-2-phenylindole as a mounting medium. Images were acquired using a Zeiss LSM510 laser-scanning confocal microscope (Carl Zeiss Inc., Thornwood, N.Y.). A single 488-nm beam from an argon/krypton laser was used for excitation of the Oregon Green. Differential interference contrast images were also acquired. Five experiments were performed and coverslips were examined. Approximately 2100 cells from control and desipramine-treated coverslips were counted by two investigators blind to the experimental conditions over the course of the five experiments.
The cellular distribution of Gsα was quantified in confocal imaged C6-2B cells using NIH-Image software (http://rsbinfonihpov/nih-image) as describe previously [Southwell et al., Cell Tissue Res., 292:37-45, 1998; Jenkinson et al., Br. J. Pharmacol., 126:131-136, 1999]. Images of 9×1 μm optical, planar sections taken from four randomly selected control and four randomly selected desipramine-treated cells were captured and the middle five sections from each cell were quantified. Total cellular Gsα fluorescence was measured by counting the number of pixels with intensity above threshold (determined by minimum intensity above background in this case 50 pixels). The areas of intensity were numbered and divided visually into those localized to the cell body and those localized to the processes and process tips. The total from each region was divided by the total cell pixel intensity and expressed as a percentage of the total. This was done for each section of each cell and the sections were averaged per cell to give an average percentage total per cell.
In a separate investigation, seven sets of 300 cells each from control group and desipramine-treated cells from five experiments were counted to determine the primary localization (processes and process tips or cell body) of Gsα within these cells. The majority of the cells stained positively for Gsα throughout the entire cell, but there was usually an enhancement in one of these regions. […] The counts are expressed as the ratio of process and process tip localization/cell body localization.
Studies were conducted to determine whether a shift in cellular localization of Gsα occurred in C6-2B cells subjected to antidepressants.
Twenty-one hundred cells from each group (control versus desipramine-treated) over a series of five experiments were examined to quantify the extent of the antidepressant effect. […] Abnormal cells or those not displaying processes were not included in the cell count. Cells (300-450) were counted per experiment and the ratio of category A cells to category B cells for each group is shown in FIG. 8. […]

Gsα [3] = assay: as above; format: cell-based
[4] = rat cerebral cortex synaptic membrane, 10 mg/kg i.p. once daily for 21 days, mean ± SEM of 4-6 experiments
[5] = 10 μM desipramine 3 days, individual cells D1-D4

SMILES | GsαL in Remainder, % of corresponding value in control group (Gsα [1]; [4]) | GsαL in Triton X-100 extract, % of corresponding value in control group (Gsα [1]; [4]) | GsαL in Triton X-114 extract, % of corresponding value in control group (Gsα [1]; [4]) | GsαS in Remainder, % of corresponding value in control group (Gsα [1]; [4]) | GsαS in Triton X-100 extract, % of corresponding value in control group (Gsα [1]; [4]) | GsαS in Triton X-114 extract, % of corresponding value in control group (Gsα [1]; [4]) | GsαL in the Triton X-100 extract versus control (Gsα [1]) | GsαL in the Triton X-114 extract versus control (Gsα [1]) | Gsα immunofluorescence in cell processes and process tips (Gsα [2]; 10 μM, 3 days) | Cells displaying intense Gsα staining at the process tips (and processes) (Gsα [2]; 10 μM, 3 days) [%] | Decrease in Gsα localization to the processes and process tips, control versus treated cells (Gsα [2]; 10 μM desipramine 3 days) | Percentage of Gsα immunofluorescence distribution, Processes, Average (Gsα [2]; 10 μM desipramine 3 days, average of four cells, control 12.0 ± 5.7) [%] | Percentage of Gsα immunofluorescence distribution, Processes, Average (Gsα [2]; 10 μM desipramine 3 days, average of four cells, control 12.0 ± 5.7, listed as desipramine) [%] | Percentage of Gsα immunofluorescence distribution, Cell Body, Average (Gsα [2]; 10 μM desipramine 3 days, average of four cells, control 88.0 ± 5.7) [%] | Percentage of Gsα immunofluorescence distribution, Cell Body, single cells (Gsα [2]; [5]) | Percentage of Gsα immunofluorescence distribution, Processes, single cells (Gsα [2]; [5]) | Gsα in the cell body (Gsα [2]; 10 μM, 3 days) | Intense Gsα staining at the process tips (Gsα [3]; 3 μM for five days) | Number of cells lacking Gsα in the process tips versus control (Gsα [3]; acute treatment, one day, 10 μM)
CNCCC(Oc1ccc(C(F)(F)F)cc1)c1ccccc1 (stereo not shown) [Fluoxetine, fluoxetine] | 53.8 ± 6.9^a % | 118.1 ± 3.4^a % | 81.9 ± 4.5^a % | 45.2 ± 8.4^a % | 153.8 ± 39.9% | 91.6 ± 6.3% | significant increase | concomitant decrease | loss of staining in the processes and process tips; also recorded: drastic reduction | 45 | – | – | – | – | – | – | – | – | –
CNCCCN1c2ccccc2CCc2ccccc21 [Desipramine, desipramine] | – | 128.2 ± 9.5^a % | 77.3 ± 8.8^a % | 84.9 ± 25.7% | 146.4 ± 9.6^b % | 71.7 ± 6.8^a % | significant increase | concomitant decrease | drastically reduced; also recorded: decrease in the cell processes and process tips | 32 | three-fold decrease | 4.1 ± 4.7 | 4 | 95.9 ± 4.7 | 91.4% and 92.2% and 100.0% (2×) | 8.6% and 7.8% and 0.0% (2×) | increase | do not | not significantly different from the control

Reference: patent USRE43712E1, “Methods for assaying for antidepressant therapy markers” (The Board of Trustees of the Uniersity of Illinois, priority 2000, dated 2012)
